Measurements taken from patent US8658646B2, “Pyrrolopyrazine kinase inhibitors” (Hoffmann-LaRoche Inc., priority 2011, dated 2014).

How the values were obtained:
[1] = biological target: T1, JAK3: Recombinant human kinase domain (Homo sapiens, UniProt P52333); test: Determination of IC50 of Janus Kinase (JAK) inhibition, radioactive end-point 33P-ATP assay, JAK3; assay type: biochemical; conditions: ATP 1.5 uM, peptide 50 uM, 20 minutes, read-out: JAK3-INHIB-DR/v1~NO ADDITIVE~Enzyme_Conc = 100
T1 construct: JAK3: Recombinant human kinase domain from Millipore (Cat #14-629) or prepared; purchased Millipore 14-629
T1 sequence (P52333 822-1111 limits assumed): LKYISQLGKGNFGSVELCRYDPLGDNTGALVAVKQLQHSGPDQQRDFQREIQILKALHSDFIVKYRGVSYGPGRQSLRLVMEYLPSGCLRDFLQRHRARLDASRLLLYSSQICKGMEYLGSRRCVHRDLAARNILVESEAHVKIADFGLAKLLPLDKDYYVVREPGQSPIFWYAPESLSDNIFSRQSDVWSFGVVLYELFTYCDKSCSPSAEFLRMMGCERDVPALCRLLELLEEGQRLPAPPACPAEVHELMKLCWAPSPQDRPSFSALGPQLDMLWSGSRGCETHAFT
Description: Determination of IC50 of Janus Kinase (JAK) Inhibition:
Assay conditions used are described below: • Assay Buffer: JAK Kinase Buffer: 50 mM Hepes [pH 7.2], 10 mM MgCl2, 1 mM DTT, 1 mg/ml BSA. The assay was carried out in this buffer. • Assay Format The kinase activity of all three JAK kinases was measured using a radioactive, end-point assay and with trace amounts of ^33P-ATP. The assays were carried out in 96-well polypropylene plates. Experimental Method:
All concentrations were final in the reaction mixture and all incubations were carried at room temperature. […] Final concentration of DMSO in the reaction was 10%. • 2) Compounds were preincubated with enzyme (0.5 nM JAK3 (commercially available), 0.2 nM JAK3 (prepared), 1 nM JAK2, 5 nM JAK1) for 10 minutes. • 3) Reactions were initiated by the addition of a cocktail of the two substrates (ATP and peptide premixed in the JAK Kinase Buffer). […] JAK1 assay was carried out at an ATP concentration of 10 uM and a peptide concentration of 50 uM. • 4) The duration of the assay for JAK2 and JAK3 is 20 minutes. JAK1 assay was carried out for 40 minutes. With all three enzymes, reactions were terminated by the addition of 0.5M EDTA to a final concentration of 100 mM. • 5) 25 ul of terminated reactions were transferred to 150 ul of a 7.5% (v/v) slurry of streptavidin-coated sepharose beads in MgCl2- and CaCl2-free 1× Phosphate Buffered Saline containing 50 mM of EDTA in 96-well, 1.2 um MultiScreen-BV filter plates. • 6) After a 30-minute incubation, the beads were washed under vacuum with the following buffers: • a. 3 to 4 washes with 200 ul of 2M NaCl. • b. 3 to 4 washes with 200 ul of 2M NaCl plus 1% (v/v) phosphoric acid. • c. 1 wash with water. • 7) Washed plates were dried in a 60° C. oven for between 1 to 2 hours. • 8) 70 ul of Microscint 20 scintillation fluid was added to each well of filter plates and after at least 30 minutes of incubation, radioactive counts were measured in a Perkinelmer microplate scintillation counter.

[2] = biological target: T2, recombinant human SYK360-635 (Homo sapiens, UniProt P43405); test: Determination of IC50 of Spleen Tyrosine Kinase (SYK) inhibition, 33P ATP filtration assay; assay type: biochemical; conditions: SYK aa 360-635 0.5 nM; ATP 20 μM, peptide 5 μM, 0.1% BSA; read-out: SYK_ENZYME_FILTRATION/v1, BSA
T2 construct: made in house

`CC(C)(C)NC(=O)c1c[nH]c2ncc(-c3ncn4cc(F)ccc34)nc12` [Example I-357, 2-(6-Fluoro-imidazo[1,5-a]pyridin-1-yl)-5H-pyrrolo[2,3-b]pyrazine-7-carboxylic acid tert-butylamide] showed an IC50 [1] of 5.3 nM and an IC50 [2] of 14.8 nM.
Molecule `C[C@@H](NC(=O)c1c[nH]c2ncc(-c3nn(C)c4cc(F)ccc34)nc12)C1=NCCO1` [Example I-60, 2-(6-Fluoro-1-methyl-1H-indazol-3-yl)-5H-pyrrolo[2,3-b]pyrazine-7-carboxylic acid [(R)-1-(4,5-dihydro-oxazol-2-yl)-ethyl]-amide] has an IC50 [1] of 27.4 nM and an IC50 [2] of 31.9 nM.
`COC[C@H](C)NC(=O)c1c[nH]c2ncc(-c3nn(Cc4ccc(N5CCOCC5)nc4)c4cc(F)ccc34)nc12` [Example I-237, 2-[6-Fluoro-1-(6-morpholin-4-yl-pyridin-3-ylmethyl)-1H-indazol-3-yl]-5H-pyrrolo[2,3-b]pyrazine-7-carboxylic acid ((S)-2-methoxy-1-methyl-ethyl)-amide] gave an IC50 [1] of 0.725 nM and an IC50 [2] of 22.7 nM.
`Cc1ccc2c(-c3cnc4[nH]cc(C(=O)N[C@H](C)C(=O)N5CC(C#N)C5)c4n3)ncn2c1` [Example I-31, 2-(6-Methyl-imidazo[1,5-a]pyridin-1-yl)-5H-pyrrolo[2,3-b]pyrazine-7-carboxylic acid [(R)-2-(3-cyano-azetidin-1-yl)-1-methyl-2-oxo-ethyl]-amide] showed an IC50 [1] of 0.335 nM and an IC50 [2] of 53.1 nM.
With `COC[C@H](C)NC(=O)c1c[nH]c2ncc(-n3cnc4cc(Cl)ccc43)nc12` [Example I-223, 2-(5-Chloro-benzoimidazol-1-yl)-5H-pyrrolo[2,3-b]pyrazine-7-carboxylic acid ((S)-2-methoxy-1-methyl-ethyl)-amide] the IC50 [1] was 189 nM and the IC50 [2] was 416 nM.
Work on `CC(NC(=O)c1c[nH]c2ncc(-c3nn(CCN4CCOCC4)c4cc(F)ccc34)nc12)c1ccncc1` (stereo not shown) [Example I-248, 2-[6-Fluoro-1-(2-morpholin-4-yl-ethyl)-1H-indazol-3-yl]-5H-pyrrolo[2,3-b]pyrazine-7-carboxylic acid (1-pyridin-4-yl-ethyl)-amide] yielded an IC50 [1] of 53.5 nM and an IC50 [2] of 514 nM.
`C[C@H](CN1CC(F)C1)NC(=O)c1c[nH]c2ncc(-c3nn(C)c4cc(Cl)ccc34)nc12` [Example I-123, 2-(6-Chloro-1-methyl-1H-indazol-3-yl)-5H-pyrrolo[2,3-b]pyrazine-7-carboxylic acid [(R)-2-(3-fluoro-azetidin-1-yl)-1-methyl-ethyl]-amide] was tested, and the IC50 [1] was 68.6 nM and the IC50 [2] was 144 nM.
`Cn1nc(-c2cnc3[nH]cc(C(=O)NC(C)(C)C#N)c3n2)c2ccc(F)cc21` [Example I-377, 2-(6-Fluoro-1-methyl-1H-indazol-3-yl)-5H-pyrrolo[2,3-b]pyrazine-7-carboxylic acid (cyano-dimethyl-methyl)-amide] gave an IC50 [1] of 5.4 nM and an IC50 [2] of 4.55 nM.
For `COC[C@@H](NC(=O)c1c[nH]c2ncc(-c3nn(C)c4cc(F)ccc34)nc12)[C@@H](C)O` [Example I-177, 2-(6-Fluoro-1-methyl-1H-indazol-3-yl)-5H-pyrrolo[2,3-b]pyrazine-7-carboxylic acid ((1R,2R)-2-hydroxy-1-methoxymethyl-propyl)-amide], the IC50 [1] was 80.9 nM and the IC50 [2] was 704 nM.
Molecule `CC(C)NC(=O)c1c[nH]c2ncc(-c3nn(CCCN4CCOCC4)c4cc(Cl)cc(F)c34)nc12` [Example I-132, 2-[6-Chloro-4-fluoro-1-(3-morpholin-4-yl-propyl)-1H-indazol-3-yl]-5H-pyrrolo[2,3-b]pyrazine-7-carboxylic acid isopropylamide] has an IC50 [1] of 4.72 nM and an IC50 [2] of 23.4 nM.
For `C[C@@H](NC(=O)c1c[nH]c2ncc(-c3nn(C)c4cc(F)ccc34)nc12)c1cccc(OC(F)(F)F)c1` [Example I-254, 2-(6-Fluoro-1-methyl-1H-indazol-3-yl)-5H-pyrrolo[2,3-b]pyrazine-7-carboxylic acid [(R)-1-(3-trifluoromethoxy-phenyl)-ethyl]-amide], the IC50 [1] was 18.6 nM and the IC50 [2] was 3230 nM.
Work on `Cc1cc(Cn2nc(-c3cnc4[nH]cc(C(=O)NC(C)C)c4n3)c3ccc(Cl)cc32)no1` [Example I-312, 2-[6-Chloro-1-(5-methyl-isoxazol-3-ylmethyl)-1H-indazol-3-yl]-5H-pyrrolo[2,3-b]pyrazine-7-carboxylic acid isopropylamide] yielded an IC50 [1] of 8.25 nM and an IC50 [2] of 73.6 nM.
Work on `C[C@H](NC(=O)c1c[nH]c2ncc(-c3nn(C)c4cc(Cl)ccc34)nc12)C(C)(C)C#N` [Example I-80, 2-(6-Chloro-1-methyl-1H-indazol-3-yl)-5H-pyrrolo[2,3-b]pyrazine-7-carboxylic acid ((S)-2-cyano-1,2,2-trimethyl-ethyl)-amide] yielded an IC50 [1] of 12.6 nM and an IC50 [2] of 29.1 nM.
With `C[C@H](O)[C@H](C)NC(=O)c1c[nH]c2ncc(-c3nn(C)c4cc(Cl)ccc34)nc12` (relative stereo) [Example I-201, 2-(6-Chloro-1-methyl-1H-indazol-3-yl)-5H-pyrrolo[2,3-b]pyrazine-7-carboxylic acid (trans-2-hydroxy-1-methyl-propyl)-amide] the IC50 [1] was 10.5 nM and the IC50 [2] was 7.57 nM.
`CC(NC(=O)c1c[nH]c2ncc(-c3nn(C)c4cc(Cl)ccc34)nc12)C1CCCO1` (stereo not shown) [Example I-154, 2-(6-Chloro-1-methyl-1H-indazol-3-yl)-5H-pyrrolo[2,3-b]pyrazine-7-carboxylic acid [1-(tetrahydro-furan-2-yl)-ethyl]-amide] showed an IC50 [1] of 4.95 nM and an IC50 [2] of 47.3 nM.
`CC(NC(=O)c1c[nH]c2ncc(-c3nn(CCN(C)C)c4cc(Cl)ccc34)nc12)c1cccnc1` (stereo not shown) [Example I-246, 2-[6-Chloro-1-(2-dimethylamino-ethyl)-1H-indazol-3-yl]-5H-pyrrolo[2,3-b]pyrazine-7-carboxylic acid (1-pyridin-3-yl-ethyl)-amide] was tested, and the IC50 [1] was 41.5 nM and the IC50 [2] was 354 nM.
In the case of `C[C@@H](NC(=O)c1c[nH]c2ncc(-c3nn(C)c4cc(Cl)ccc34)nc12)c1ccccc1` [Example I-25, 2-(6-Chloro-1-methyl-1H-indazol-3-yl)-5H-pyrrolo[2,3-b]pyrazine-7-carboxylic acid ((R)-1-phenyl-ethyl)-amide], the IC50 [1] is reported as 19.2 nM and the IC50 [2] is reported as 54.2 nM.
`CC(NC(=O)c1c[nH]c2ncc(-c3nn(C)c4cc(F)ccc34)nc12)[C@H]1C[C@@H](O)C1` (stereo partly drawn) [Example I-73, 2-(6-Fluoro-1-methyl-1H-indazol-3-yl)-5H-pyrrolo[2,3-b]pyrazine-7-carboxylic acid [1-(cis-3-hydroxy-cyclobutyl)-ethyl]-amide] showed an IC50 [1] of 19.7 nM and an IC50 [2] of 9.95 nM.
For `C[C@@H](NC(=O)c1c[nH]c2ncc(-c3nccc4ccccc34)nc12)C(=O)N1CC(C#N)C1` [Example I-77, 2-Isoquinolin-1-yl-5H-pyrrolo[2,3-b]pyrazine-7-carboxylic acid [(R)-2-(3-cyano-azetidin-1-yl)-1-methyl-2-oxo-ethyl]-amide], the IC50 [1] was 53.8 nM and the IC50 [2] was greater than 10000 nM.
Work on `Cn1nc(-c2cnc3[nH]cc(C(=O)N[C@@H]4CCC[C@H](O)C4)c3n2)c2ccc(Cl)cc21` (relative stereo) [Example I-149, 2-(6-Chloro-1-methyl-1H-indazol-3-yl)-5H-pyrrolo[2,3-b]pyrazine-7-carboxylic acid (cis-3-hydroxy-cyclohexyl)-amide] yielded an IC50 [1] of 10.3 nM and an IC50 [2] of 52 nM.
Work on `Cn1nc(-c2cnc3[nH]cc(C(=O)NC(CO)C4CCCO4)c3n2)c2ccc(F)cc21` (stereo not shown) [Example I-190, 2-(6-Fluoro-1-methyl-1H-indazol-3-yl)-5H-pyrrolo[2,3-b]pyrazine-7-carboxylic acid [2-hydroxy-1-(tetrahydro-furan-2-yl)-ethyl]-amide] yielded an IC50 [1] of 141 nM and an IC50 [2] of 127 nM.
`C[C@@H](NC(=O)c1c[nH]c2ncc(-c3nn(C)c4cc(F)ccc34)nc12)c1ccccn1` [Example I-78, 2-(6-Fluoro-1-methyl-1H-indazol-3-yl)-5H-pyrrolo[2,3-b]pyrazine-7-carboxylic acid ((R)-1-pyridin-2-yl-ethyl)-amide] was tested, and the IC50 [1] was 14.2 nM and the IC50 [2] was 30.2 nM.
`Cn1nc(-c2cnc3[nH]cc(C(=O)N[C@H]4CC[C@H](O)CC4)c3n2)c2ccc(Cl)cc21` [Example I-144, 2-(6-Chloro-1-methyl-1H-indazol-3-yl)-5H-pyrrolo[2,3-b]pyrazine-7-carboxylic acid (trans-4-hydroxy-cyclohexyl)-amide] showed an IC50 [1] of 13.1 nM and an IC50 [2] of 37.1 nM.
`CC(C)NC(=O)c1c[nH]c2ncc(-c3nn(C)c4ccc(Oc5cccc(Cl)c5)cc34)nc12` [Example I-280, 2-[5-(3-Chloro-phenoxy)-1-methyl-1H-indazol-3-yl]-5H-pyrrolo[2,3-b]pyrazine-7-carboxylic acid isopropylamide] was tested, and the IC50 [1] was 240 nM and the IC50 [2] was 377 nM.
`Cn1nc(-c2cnc3[nH]cc(C(=O)NC4CCOC4)c3n2)c2ccc(Cl)cc21` (stereo not shown) [Example I-107, 2-(6-Chloro-1-methyl-1H-indazol-3-yl)-5H-pyrrolo[2,3-b]pyrazine-7-carboxylic acid (tetrahydro-furan-3-yl)-amide] gave an IC50 [1] of 11.5 nM and an IC50 [2] of 20.8 nM.
In the case of `CCc1ccc2c(-c3cnc4[nH]cc(C(=O)N[C@H](C)C(=O)N5CC(C#N)C5)c4n3)nn(C)c2c1` [Example I-87], the IC50 [1] is reported as 1.78 nM and the IC50 [2] is reported as 158 nM.
In the case of `Cn1nc(-c2cnc3[nH]cc(C(=O)N[C@@H]4CCCN(CC(F)(F)F)C4)c3n2)c2ccc(Cl)cc21` [Example I-168, 2-(6-Chloro-1-methyl-1H-indazol-3-yl)-5H-pyrrolo[2,3-b]pyrazine-7-carboxylic acid [(R)-1-(2,2,2-trifluoro-ethyl)-piperidin-3-yl]-amide], the IC50 [1] is reported as 118 nM and the IC50 [2] is reported as 3710 nM.
Work on `CC(C)NC(=O)c1c[nH]c2ncc(-c3nn(C)c4cc(Cl)ccc34)nc12` [Example I-108, 2-(6-Chloro-1-methyl-1H-indazol-3-yl)-5H-pyrrolo[2,3-b]pyrazine-7-carboxylic acid isopropylamide] yielded an IC50 [1] of 7.05 nM.
